Results as given in BindingDB's records for doi:10.1016/j.bmc.2007.02.010 (Princeton University, 2007).

Target: T1, E3 ubiquitin-protein ligase XIAP [241-356] (Homo sapiens, UniProt P98170)
T1 construct: 241-356
Test: Competitive Fluorescent-binding Assay
Details: pH 7; 22 °C
Description: AVPC-badan can be displaced from the binding pocket of the protein by test compounds. As the dye is displaced from the binding pocket, the emission is reduced and resembles that of the AVPC-badan dye in solution alone. The AUC for the emission spectra of AVPC-badan alone, AVPC-badan, and for the Smac mimic bound to BIR3-XIAP are used to calculate a relative Kd for the Smac mimic. The relative Kd is then converted to an absolute Kd using the Kd value for AVPC-badan, which was determined in a titration assay.

T1 sequence (P98170 241-356): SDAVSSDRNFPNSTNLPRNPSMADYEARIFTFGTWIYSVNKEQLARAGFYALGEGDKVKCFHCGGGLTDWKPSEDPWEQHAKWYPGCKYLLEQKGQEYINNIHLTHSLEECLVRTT

CC[C@@H](C)[C@H](NC(=O)[C@@H]1CCCN1C(=O)c1coc([C@H](C)N)n1)C(=O)O [(2S,3R)-2-{[(2S)-1-({2-[(1S)-1-aminoethyl]-1,3-oxazol-4-yl}carbonyl)pyrrolidin-2-yl]formamido}-3-methylpentanoic acid]
Kd: 300 µM
